# In patent US5622962A, “5α-reductase inhibitors” (priority 1995, dated 1997):
# Legend:
# [1] = target: T1, Type I 5α-Reductase from Human Scalp (Homo sapiens, UniProt P18405); assay: Human Type I 5α-reductase assay (conversion of [3H]-testosterone to 5α-reduced metabolites); type: biochemical; settings: 50 nM [3H]-testosterone, pH 7.5, 25°, 180 min, compared to control reaction mixtures; for inhibition at 0.3 µM: pH 7.5, 0.3 μM, read-out: percent inhibition of Type I AR
# T1 construct: Scalp punch biopsies from graft recipient sites were obtained from human hair transplant procedures; from tissue; host or cells: human scalp punch biopsies (hair transplant graft recipient sites), homogenate, 100,000×g pellet
# T1 sequence (P18405 1-259): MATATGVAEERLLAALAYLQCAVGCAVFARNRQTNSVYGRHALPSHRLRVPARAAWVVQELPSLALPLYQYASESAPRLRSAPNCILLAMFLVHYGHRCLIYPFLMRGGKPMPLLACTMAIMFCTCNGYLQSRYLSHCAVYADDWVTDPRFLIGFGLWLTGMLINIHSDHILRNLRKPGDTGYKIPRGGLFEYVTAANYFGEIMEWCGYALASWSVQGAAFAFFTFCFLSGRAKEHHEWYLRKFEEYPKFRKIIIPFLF
# [2] = target: T2, Type II 5α-Reductase from Human Prostate (Homo sapiens, UniProt P31213); assay: Human Type II 5α-reductase assay (conversion of [3H]-testosterone to 5α-reduced metabolites); type: biochemical; settings: pH 5.5, 0.3 μM; sodium acetate pH 5.5, 25°, 30 min; compared to control reaction mixtures; read-out: percent inhibition of Type II AR
# T2 construct: The same procedure as above was used for preparations using tissue from prostate surgery; from tissue; host or cells: human prostate tissue from surgery, homogenate, 100,000×g pellet
# T2 sequence (P31213 1-254): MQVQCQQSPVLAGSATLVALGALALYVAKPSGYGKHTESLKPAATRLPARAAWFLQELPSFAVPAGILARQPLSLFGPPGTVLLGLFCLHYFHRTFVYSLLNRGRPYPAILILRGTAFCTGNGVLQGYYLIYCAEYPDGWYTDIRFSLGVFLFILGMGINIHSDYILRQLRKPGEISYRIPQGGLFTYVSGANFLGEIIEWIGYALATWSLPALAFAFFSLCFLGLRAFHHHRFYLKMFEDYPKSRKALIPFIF
compound,measurement,setting,value
"C[C@]12CCC(=O)N[C@@H]1CCc1cc(Sc3ccc(Cl)cc3)ccc12 [Example 5, (+)-(4aR)-(10bR)-8-(4-chlorophenylthio)-10b-methyl-1,2,3,4,4a,5,6,10b-octahydrobenzo [f]quinolin-3-one]",inhibition at 0.3 µM,[1],44%
same,inhibition at 0.3 µM,[2],0%
"Cc1ccc(Sc2ccc3c(c2)CC[C@H]2NC(=O)CC[C@]32C)cc1 [Example 6, (+)-(4aR)-(10bR)-8-(4-methylphenylthio)-10b-methyl-1,2,3,4,4a,5,6,10b-octahydrobenzo [f]quinolin-3-one]",inhibition at 0.3 µM,[1],11%
same,inhibition at 0.3 µM,[2],23%
C[C@]12CCC(=O)N[C@@H]1CCc1cc(Sc3ccccc3Cl)ccc12 [Example 7],inhibition at 0.3 µM,[1],49%
same,inhibition at 0.3 µM,[2],42%
"C[C@]12CCC(=O)N[C@@H]1CCc1cc(Sc3cccc(Cl)c3)ccc12 [Example 8, (+)-(4aR)-(10bR)-8-(3-chlorophenylthio)-10b-methyl-1,2,3,4,4a,5,6,10b-octahydrobenzo[f]quinolin-3-one]",inhibition at 0.3 µM,[1],22%
same,inhibition at 0.3 µM,[2],59%
"Cc1ccccc1Sc1ccc2c(c1)CC[C@H]1NC(=O)CC[C@]21C [Example 9, (+)-(4aR)-(10bR)-8-(2-methylphenylthio)-10b-methyl-1,2,3,4,4a,5,6,10b-octahydrobenzo[f]quinolin-3-one]",inhibition at 0.3 µM,[1],3%
same,inhibition at 0.3 µM,[2],31%
"Cc1cccc(Sc2ccc3c(c2)CC[C@H]2NC(=O)CC[C@]32C)c1 [Example 10, (+)-(4aR)-(10bR)-8-(3-methylphenylthio)-10b-methyl-1,2,3,4,4a,5,6,10b-octahydrobenzo[f]quinolin-3-one]",inhibition at 0.3 µM,[1],22%
same,inhibition at 0.3 µM,[2],40%
"C[C@]12CCC(=O)N[C@@H]1CCc1cc(Sc3cccc4ccccc34)ccc12 [Example 11, (+)-(4aR)-(10bR)-8-(1-naphthylthio)-10b-methyl-1,2,3,4,4a,5,6,10b-octahydrobenzo[f]quinolin-3-one]",inhibition at 0.3 µM,[1],87%
same,inhibition at 0.3 µM,[2],40%
"COc1ccccc1Sc1ccc2c(c1)CC[C@H]1NC(=O)CC[C@]21C [Example 12, (+)-(4aR)-(10bR)-8-(2-methoxyphenylthio)-10b-methyl-1,2,3,4,4a,5,6,10b-octahydrobenzo[f]quinolin-3-one]",inhibition at 0.3 µM,[1],16%
same,inhibition at 0.3 µM,[2],22%
"COc1ccc(Sc2ccc3c(c2)CC[C@H]2NC(=O)CC[C@]32C)cc1 [Example 13, (+)-(4aR)-(10bR)-8-(4-methoxyphenylthio)-10b-methyl-1,2,3,4,4a,5,6,10b-octahydrobenzo[f]quinolin-3-one]",inhibition at 0.3 µM,[1],11%
same,inhibition at 0.3 µM,[2],22%
"C[C@]12CCC(=O)N[C@@H]1CCc1cc(Sc3ccc(F)cc3)ccc12 [Example 14, (+)-(4aR)-(10bR)-8-(4-fluorophenylthio)-10b-methyl-1,2,3,4,4a,5,6,10b-octahydrobenzo[f]quinolin-3-one]",inhibition at 0.3 µM,[1],37%
same,inhibition at 0.3 µM,[2],25%
"COc1cccc(Sc2ccc3c(c2)CC[C@H]2NC(=O)CC[C@]32C)c1 [Example 15, (4aR)-(10bR)-8-(3-methoxyphenylthio)-10b-methyl-1,2,3,4,4a,5,6,10b-octahydrobenzo[f]quinolin-3-one]",inhibition at 0.3 µM,[1],23%
same,inhibition at 0.3 µM,[2],39%
"C[C@]12CCC(=O)N[C@@H]1CCc1cc(Sc3cccc(F)c3)ccc12 [Example 16, (+)-(4aR)-(10bR)-8-(3-fluorophenylthio)-10b-methyl-1,2,3,4,4a,5,6,10b-octahydrobenzo[f]quinolin-3-one]",inhibition at 0.3 µM,[1],14%
same,inhibition at 0.3 µM,[2],28%
"C[C@]12CCC(=O)N[C@@H]1CCc1cc(Sc3ccccc3F)ccc12 [Example 17, (+)-(4aR)-(10bR)-8-(2-fluorophenylthio)-10b-methyl-1,2,3,4,4a,5,6,10b-octahydrobenzo[f]quinolin-3-one]",inhibition at 0.3 µM,[1],29%
same,inhibition at 0.3 µM,[2],19%
"C[C@]12CCC(=O)N[C@@H]1CCc1cc(Sc3cnc4ccccc4c3)ccc12 [Example 18, (4aR)-(10bR)-8-(3-quinolinylthio)-10b-methyl-1,2,3,4,4a,5,6,10b-octahydrobenzo[f]quinolin-3-one]",inhibition at 0.3 µM,[1],7%
same,inhibition at 0.3 µM,[2],15%
"C[C@]12CCC(=O)N[C@@H]1CCc1cc(Sc3ccc4ccccc4n3)ccc12 [Example 19, (4aR)-(10bR)-8-(2-quinolinylthio)-10b-methyl-1,2,3,4,4a,5,6,10b-octahydrobenzo[f]quinolin-3-one]",inhibition at 0.3 µM,[1],59%
same,inhibition at 0.3 µM,[2],56%
"C[C@]12CCC(=O)N[C@@H]1CCc1cc(Sc3cccc4cccnc34)ccc12 [Example 20, (+)-(4aR)-(10bR)-8-(8-quinolinylthio)-10b-methyl-1,2,3,4,4a,5,6,10b-octahydrobenzo[f]quinolin-3-one]",inhibition at 0.3 µM,[1],22%
same,inhibition at 0.3 µM,[2],48%
"C[C@]12CCC(=O)N[C@@H]1CCc1cc(Sc3ccccn3)ccc12 [Example 21, (4aR)-(10bR)-8-(2-pyridinylthio)-10b-methyl-1,2,3,4,4a,5,6,10b-octahydrobenzo[f]quinolin-3-one]",inhibition at 0.3 µM,[1],27%
same,inhibition at 0.3 µM,[2],42%
"C[C@]12CCC(=O)N[C@@H]1CCc1cc(SCc3ccccc3)ccc12 [Example 23, (4aR)-(10bR)-8-benzylthio-10b-methyl-1,2,3,4,4a,5,6,10b-octahydrobenzo[f]quinolin-3-one]",inhibition at 0.3 µM,[1],59%
same,inhibition at 0.3 µM,[2],31%
"CN1C(=O)CC[C@]2(C)c3ccc(-c4cccc(F)c4F)cc3CC[C@@H]12 [Example 26, (+)-(4aR)-(10bR)-4-methyl-8-(2,3-difluorophenyl)-10b-methyl-1,2,3,4,4a,5,6,10b-octahydrobenzo[f]quinolin-3-one]",inhibition at 0.3 µM,[1],86%
"CN1C(=O)CC[C@]2(C)c3ccc(-c4ccc(F)c(F)c4)cc3CC[C@@H]12 [Example 27, (+)-(4aR)-(10bR)-4-methyl-8-(3,4-difluorophenyl)-10b-methyl-1,2,3,4,4a,5,6,10b-octahydrobenzo[f]quinolin-3-one]",inhibition at 0.3 µM,[1],92%
"CN1C(=O)CC[C@]2(C)c3ccc(Sc4ccccc4Cl)cc3CC[C@@H]12 [Example 99, (+)-(4aR)-(10bR)-4,10b-dimethyl-8-(2-chlorophenylthio)-1,2,3,4,-4a,5,6,10b-octahydrobenzo[f]quinolin-3-one]",inhibition at 0.3 µM,[1],88%
"CN1C(=O)CC[C@]2(C)c3ccc(-c4ccc([N+](=O)[O-])cc4)cc3CC[C@@H]12 [Example 119, (+)-(4aR)-(10bR)-4-methyl-8-(4-nitrophenyl)-10b-methyl-1,2,3,4,4a,5,6,10b-octahydrobenzo[f]quinolin-3-one]",inhibition at 0.3 µM,[1],84%
"C[C@]12CCC(=O)N[C@@H]1CCc1cc(-c3cnc4ccccc4c3)ccc12 [Example 196, (+)-(4aR)-(10bR)-8-(3-quinolinyl)-10b-methyl-1,2,3,4,4a,-5,6,10b-octahydrobenzo[f]quinolin-3-one]",percent inhibition of Type I AR,[1]; 0.3 μM,11%
"CN1C(=O)CC[C@]2(C)c3ccc(-c4cccc(NC(=O)c5ccccc5)c4)cc3CC[C@@H]12 [Example 273, (+)-(4aR)-(10bR)-4-methyl-8-(3-[benzoylamino]phenyl)-10b-methyl-1,2,3,4,4a,5,6,10b-octahydrobenzo[f]quinolin-3-one]",inhibition at 0.3 µM,[2],27%
"CN1C(=O)CC[C@]2(C)c3ccc(-c4cccs4)cc3CC[C@@H]12 [Example 278, (4aR)-(10bR)-4,10b-dimethyl-8-(2-thiophenyl)-1,2,3,4,4a,5,6,10b-octahydrobenzo[f]quinolin-3-one]",inhibition at 0.3 µM,[2],28%
"CN1C(=O)CC[C@]2(C)c3ccc(/C=C/c4cncc5ccccc45)cc3CC[C@@H]12 [Example 281, (4aR)-(10bR)-4,10b-dimethyl-8-(2-[4-isoquinolinyl]ethenyl)-1,2,3,4,4a,5,6,10b-octahydrobenzo[f]quinolin-3-one]",inhibition at 0.3 µM,[2],44%
"CN1C(=O)CC[C@]2(C)c3ccc(/C=C/c4cnc5ccccc5c4)cc3CC[C@@H]12 [Example 282, (4aR)-(10bR)-4,10b-dimethyl-8-(2-[3-quinolinyl]ethenyl)-1,2,3,4,4a,5,6,10b-octahydrobenzo[f]quinolin-3-one]",inhibition at 0.3 µM,[2],37%
"CN1C(=O)CC[C@]2(C)c3ccc(/C=C/c4ccc5ccccc5n4)cc3CC[C@@H]12 [Example 283, (4aR)-(10bR)-4,10b-dimethyl-8-(2-[2-quinolinyl]ethenyl)-1,2,3,4,4a,5,6,10b-octahydrobenzo[f]quinolin-3-one]",inhibition at 0.3 µM,[2],37%
"C[C@]12CCC(=O)N[C@@H]1CCc1cc(C(=O)Nc3ccccc3)ccc12 [Example 291, (+)-(4aR)-(10bR)-8-phenylcarboxamido-10b-methyl-1,2,3,4,4a,5,6,10b-octahydrobenzo[f]quinoline-3-one]",inhibition at 0.3 µM,[2],19%
